The target in assay [1] is IDH1-R132H recombinant protein (Homo sapiens (Human), UniProt O75874, R132H). Nature of the assay: IDH1-R132H enzymatic assay (NADPH consumption, diaphorase/resazurin readout). The class given is biochemical. The note with it: inhibition of NADPH consumption, 30 nM IDH1-R132H; read-out: Enzyme IDH1 R132H IC50. On the procedure: (§1) Assays were performed in a 384-well black plate. An aliquot of 250 nL of compound was incubated with 10 μL of 30 nM IDH1-R132H or 10 nM IDH1-R132C recombinant protein in assay buffer (50 mM Tris pH=7.5, 150 mM NaCl, 5 mM MgCl2, 0.1% (w/v) Bovine Serum Albumin, and 0.01% Triton X-100) in each well at 25° C. for 15 minutes. After the plate was centrifuged briefly, an aliquot of 10 μL of 2 mM α-ketoglutarate and 20 μM NADPH solution prepared in assay buffer was then added to each well and the reaction was maintained at 25° C. for 45 minutes. An aliquot of 10 μL of diaphorase solution (0.15 U/mL diaphorase and 30 μM Resazurin in assay buffer) was added to each well. The plate was maintained at 25° C. for 15 minutes and then read on a plate reader with excitation and emission wavelengths at 535 nm and 590 nm, respectively. The IC50 of a given compound was calculated by fitting the dose response curve of inhibition of NADPH consumption at a given concentration with the four parameter logistic equation.

For assay [2], the target named is IDH1-R132C recombinant protein (Homo sapiens (Human), UniProt O75874, R132C). In words: IDH1-R132C enzymatic assay (NADPH consumption, diaphorase/resazurin readout). The class given is biochemical. The note with it: inhibition of NADPH consumption, 10 nM IDH1-R132C; read-out: Enzyme IDH1 R132C IC50. On the procedure:
as §1
(The colour change of resazurin is a common sign of viable cells or microbes.)

For nine compounds, IC50 results are on record in US9624175B2, “Fused-bicyclic aryl quinolinone derivatives as mutant-isocitrate dehydrogenase inhibitors” (Forma Therapeutics, Inc., priority 2015, dated 2017).

Sequence of IDH1-R132H recombinant protein (O75874 whole entry R132H): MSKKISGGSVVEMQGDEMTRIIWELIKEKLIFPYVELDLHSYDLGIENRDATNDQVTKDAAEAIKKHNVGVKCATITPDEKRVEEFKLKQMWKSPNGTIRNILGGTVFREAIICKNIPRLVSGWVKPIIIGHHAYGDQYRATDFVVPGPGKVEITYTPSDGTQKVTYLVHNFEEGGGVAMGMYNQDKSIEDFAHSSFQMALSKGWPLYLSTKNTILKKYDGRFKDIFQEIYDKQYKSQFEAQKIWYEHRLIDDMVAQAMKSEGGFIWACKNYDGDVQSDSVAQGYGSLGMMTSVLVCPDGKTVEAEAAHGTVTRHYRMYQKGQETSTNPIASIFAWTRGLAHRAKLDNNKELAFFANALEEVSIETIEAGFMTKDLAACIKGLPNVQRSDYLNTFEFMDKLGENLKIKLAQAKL
Sequence of IDH1-R132C recombinant protein (O75874 whole entry R132C): as the sequence (O75874 whole entry R132H) above, with H132C counted along it

Take `CC(C)CN1C(=O)OCc2cnc(N[C@@H](C)c3cc4cc(Cl)ccc4[nH]c3=O)nc21` [Compound I-46, 6-chloro-3-[(1S)-1-{[1-(2-methylpropyl)-2-oxo-1H,2H,4H-pyrimido[4,5-d][1,3]oxazin-7-yl]amino}ethyl]-1,2-dihydroquinolin-2-one]: the IC50 in assay [1] and in assay [2] was under 0.1 µM throughout.
As for `C[C@H](Nc1ncc2[nH]c(=O)n(C)c2n1)c1cc2cc(Cl)ccc2[nH]c1=O` [Compound I-58, 6-chloro-3-[(1S)-1-[(9-methyl-8-oxo-8,9-dihydro-7H-purin-2-yl)amino]ethyl]-1,2-dihydroquinolin-2-one], the figures for the IC50 in assay [1] and in assay [2] were 0.1 to 1 µM and 1 to 10 µM, respectively.
Consider `C[C@H](Nc1ncc2[nH]c(=O)[nH]c2n1)c1cc2cc(Cl)ccc2[nH]c1=O` [Compound I-59, 6-chloro-3-[(1S)-1-[(8-oxo-8,9-dihydro-7H-purin-2-yl)amino]ethyl]-1,2-dihydroquinolin-2-one], for which the IC50 in assay [1] and in assay [2] was 1 to 10 µM throughout.
Regarding `COc1cc2[nH]c(=O)c([C@H](C)Nc3ncc4c(n3)N(C)C(=O)OC4)cc2cc1Cl` [Compound I-51, 6-chloro-7-methoxy-3-[(1S)-1-({1-methyl-2-oxo-1H,2H,4H-pyrimido[4,5-d][1,3]oxazin-7-yl}amino)ethyl]-1,2-dihydroquinolin-2-one], the IC50 in assay [1] and in assay [2] was under 0.1 µM throughout.
Take `C[C@H](Nc1ncc2c(n1)NC(=O)C2)c1cc2cc(Cl)ccc2[nH]c1=O` [Compound I-60, 6-chloro-3-[(1S)-1-({6-oxo-5H,6H,7H-pyrrolo[2,3-d]pyrimidin-2-yl}amino)ethyl]-1,2-dihydroquinolin-2-one]: the IC50 in assay [1] was in the range of 0.1 to 1 µM; in assay [2], 1 to 10 µM.
For `COc1cc2[nH]c(=O)c([C@@H](C)Nc3ncc4c(n3)N(C)C(=O)OC4)cc2cc1Cl` [Compound I-52, 6-chloro-7-methoxy-3-[(1R)-1-({1-methyl-2-oxo-1H,2H,4H-pyrimido[4,5-d][1,3]oxazin-7-yl}amino)ethyl]-1,2-dihydroquinolin-2-one] the same measures were 0.1 to 1 µM and 1 to 10 µM.
For `C[C@@H](Nc1ncc2c(n1)N(C)C(=O)OC2)c1cc2cc(Cl)c(F)cc2[nH]c1=O` [Compound I-53, 6-chloro-7-fluoro-3-[(1R)-1-({1-methyl-2-oxo-1H,2H,4H-pyrimido[4,5-d][1,3]oxazin-7-yl}amino)ethyl]-1,2-dihydroquinolin-2-one] the same measures were 1 to 10 µM and over 10 µM.
Regarding `CC(=O)N1CCc2c1ccnc2N[C@@H](C)c1cc2cc(Cl)ccc2[nH]c1=O` [Compound I-42, 3-[(1S)-1-({1-acetyl-1H,2H,3H-pyrrolo[3,2-c]pyridin-4-yl}amino)ethyl]-6-chloro-1,2-dihydroquinolin-2-one], the IC50 in assay [1] lay within 0.1 to 1 µM; in assay [2], 1 to 10 µM.
For `C[C@H](Nc1ncc2c(n1)N(C)C(=O)OC2)c1cc2cc(Cl)ccc2[nH]c1=O` [Compound I-47, 6-chloro-3-[(1S)-1-({1-methyl-2-oxo-1H,2H,4H-pyrimido[4,5-d][1,3]oxazin-7-yl}amino)ethyl]-1,2-dihydroquinolin-2-one], the IC50 in assay [1] and in assay [2] was under 0.1 µM in each case.

As a reminder, the IC50 is the point on the concentration scale where inhibition reaches its midpoint.
